Assay results from patent publication US4185106A, “Pyridones as antidandruff agents” (Hoechst Aktiengesellschaft, priority 1972, dated 1980).
Counter-ions that a name gives are not always drawn.

Assays:
in vivo = assay: in vivo
Source text: [formula] a=ethanolamine salt of 1-hydroxy-4,6-dimethyl-2-pyridone b=zinc salt of 1-hydroxy-4,6-dimethyl-2-pyridone c=zinc salt of 1-hydroxy-4-methyl-6-(2,4,4-trimethyl-pentyl)2-pyridone d=ethanolamine salt of 1-hydroxy-4-methyl-6-cyclohexyl-2-pyridone, administered in starch mucilage e=zinc salt of 1-hydroxy-4-methyl-6-cyclohexyl-2-pyridoneand [formula]

[1] = prior art compounds, cited from earlier work
dandruff = conditions: half-side washing repeated over several weeks at determined intervals
skin = conditions: J. Soc. Cosmet. Chem. 23 (1972), pages 100, 112; cited from earlier work

## Cc1cc(C)n(O)c(=O)c1 [a, ethanolamine salt of 1-hydroxy-4,6-dimethyl-2-pyridone]
In vivo; in vivo
  LD50: > 4480 mg/kg

## Cc1cc(CC(C)CC(C)(C)C)n([O-])c(=O)c1.Cc1cc(CC(C)CC(C)(C)C)n([O-])c(=O)c1.[Zn+2] (stereo not drawn) [c, zinc salt of 1-hydroxy-4-methyl-6-(2,4,4-trimethyl-pentyl)2-pyridone]
In vivo; species and route not given
  LD50: more than 6400 mg/kg

## [O-]n1ccccc1=S.[O-]n1ccccc1=S.[Zn+2] [g, zinc salt of 1-hydroxy-2-pyridine-thione]
In vivo; species and route not given
  LD50: 700 mg/kg
[1]; mild oxidizing agents form 2,2'-dithio-bis(pyridine-1-oxide)
  sensitivity to oxidation: sensitive to oxidation
dandruff
  removal of dandruff after standardized washing: dandruff still showed in many cases

## Cc1cc(C2CCCCC2)n([O-])c(=O)c1.Cc1cc(C2CCCCC2)n([O-])c(=O)c1.[Zn+2] [e, zinc salt of 1-hydroxy-4-methyl-6-cyclohexyl-2-pyridone]
In vivo; species and route not given
  LD50: more than 6400 mg/kg

## Cc1cc(C2CCCCC2)n(O)c(=O)c1 [d, ethanolamine salt of 1-hydroxy-4-methyl-6-cyclohexyl-2-pyridone]
In vivo; in vivo
  LD50: 5500 mg/kg

## On1ccccc1=S.[Na] [sodium-1-hydroxy-2-pyridine-thione]
[1]
  stability to hydrolysis: not stable to hydrolysis
skin
  dermal toxicity: considerable dermal toxicity

## Cc1cc(C)n([O-])c(=O)c1.Cc1cc(C)n([O-])c(=O)c1.[Zn+2] [b, zinc salt of 1-hydroxy-4,6-dimethyl-2-pyridone]
In vivo; species and route not given
  LD50: more than 6400 mg/kg

## On1ccccc1=S [1-hydroxy-2-pyridine-thione]
[1]
  stability to heat: sensitive to heat
  stability to light: not stable to light
